What all share (type): in vivo
The nature of series [1]: Tolerability of MCF 100 mg/day in severely burned patients. The conditions noted are these: 10 severely burned patients. How it is done: (§1) A PK study of MCF at standard dosage (100 mg/day). Cmax (end of the infusion) and Cmin (before next dose) plasma levels of MCF were obtained after first dose and at steady state (days 4 and 5 of therapy); and on day 5 in eschars (1 to 3 hours after infusion). They were measured by HPLC. Spearman's rho test was used for bivariate correlations between MCF exposure and patient's clinical factors.
There were 10 patients (eight men; age: 18 to 77 years). […] Peak plasma concentrations after the first and repeated doses of MCF were inversely correlated with % burned TBSA (Spearman's ρ = -0.695 and -0.750 (P < 0.05)), respectively, but not with the time from burn injury. […] One patient had candidemia. The crude mortality was 40%.

Series [2] is described as follows: Plasma levels of MCF (Cmax/Cmin) in severely burned patients, HPLC. Conditions: 100 mg/day. The method, then:
as §1

Series [3] is described as follows: MCF levels in burn eschar tissue on day 5, HPLC. The conditions noted are these: Spearman's rho test; 10 patients. The method, then: as §1

Molecules are shown by their SMILES. *1 amine or outer side, *2 acyl side, *3 side chain or, on linkers, in order; H or OH if unused. Where a SMILES comes first, the peptide text is derived from it. Bridges are numbered along the chain shown (N, C = ends). [ ]: non-standard residue; d: D form. The star is where a group is joined. hTyr(3S-OH,4S-OH,3'-OSO3H) = N[C@H](C(=O)O)[C@H](O)[C@@H](O)c1ccc(O)c(OS(=O)(=O)O)c1; Orn(4R-OH,5R-OH) = O=C([C@H](C[C@@H](O)[C@@H](O)N[*:3])N[*:1])[*:2]; Pro(3S-OH,4S-Me) = C[C@H]1CN[C@H](C(=O)O)[C@H]1O; X1 = CCCCCOc1ccc(-c2cc(-c3ccc(C(=O)*)cc3)no2)cc1; Gln(3R-OH) = NC(=O)C[C@@H](O)[C@H](N)C(=O)O; Hyp = O=C(O)[C@@H]1C[C@@H](O)CN1

On to `CCCCCOc1ccc(-c2cc(-c3ccc(C(=O)N[C@H]4C[C@@H](O)[C@@H](O)NC(=O)[C@@H]5[C@@H](O)[C@@H](C)CN5C(=O)[C@H]([C@H](O)CC(N)=O)NC(=O)[C@H]([C@H](O)[C@@H](O)c5ccc(O)c(OS(=O)(=O)O)c5)NC(=O)[C@@H]5C[C@@H](O)CN5C(=O)[C@H]([C@@H](C)O)NC4=O)cc3)no2)cc1` [MCF, Micafungin] (X1-[Orn(4R-OH,5R-OH)]T[Hyp][hTyr(3S-OH,4S-OH,3'-OSO3H)][Gln(3R-OH)][Pro(3S-OH,4S-Me)]; lactam 1-C), for which, in series [1], the Tolerability entry is on record as “well tolerated”. For the same compound, the “Plasma levels compared with MIC90 against most clinically important Candida species” value in series [2] (after first and multiple doses) is reported as “above the MIC90”. In series [2] (median of 10 patients, before next dose, plasma, HPLC), the “Plasma Cmin after first dose, median” value turned out to be 700 ng/mL. Further, the “Plasma Cmin at steady state, median” value in series [2] (median of 10 patients, days 4 and 5 of therapy, before next dose, plasma, HPLC) worked out at 1000 ng/mL. In addition, in series [2] (median of 10 patients, days 4 and 5 of therapy, end of the infusion, plasma, HPLC), the “Plasma Cmax at steady state, median” value is 6400 ng/mL. Besides, the “Plasma Cmax after first dose, median” value in series [2] (median of 10 patients, end of the infusion, plasma, HPLC) was 4700 ng/mL. Moreover, the “Correlation of concentrations in burn eschars with % burned TBSA” value in series [3] is reported as “not correlated”.

The values above are taken from publication PMC4471201, “Micafungin concentrations 100 mg daily in plasma and burn eschars in patients with severe burn injuries” (Critical Care, 2015).
